# Patent publication US12344820B2, “Laundry detergent and fabric care compositions with sulfonamides for odor removal from fabrics” (Rem Brands, Inc., priority 2019, dated 2025)
# Test: Soaking of sweaty polyester workout shirts in BENZ solution, subjective scent rating by a group of people
# Settings: for Post Dry average scent rating: 30 min soak, after shirt dried; for Post Wet average scent rating: after 30 minutes of soaking; for Pre Soak average scent rating: shirt smelled before soaking (baseline)
# Description: Polyester workout shirts were worn without deodorant during a one-hour workout to induce copious amounts of sweat. The shirts were kept in sealed plastic bags for several days, mimicking normal wash schedule delay. The shirts were then soaked in buckets containing various amounts of N-chloro-4-carboxybenzenesulfonamide (BENZ). The bucket contained either zero (control), 0.02 wt %, 0.04 wt %, or 0.15 wt % of the BENZ (e.g. 0.02 grams BENZ per 100 grams of water, w/w). No agitation, spinning, or moving of any kind occurred during the soaking. After 30 minutes of soaking, the shirts were wrung out and laid to dry.
# The shirts were smelled before soaking (Pre Soak), after the 30 minutes of soaking (Post Wet), and after they were dried (Post Dry) by a group of people who subjectively rated the scent of the shirt on a scale of 0 (no smell) to 10 (extremely smelly).
# [1] = 0.02 wt % BENZ in water, scale 0 to 10
# [2] = 0.04 wt % BENZ in water, scale 0 to 10
# [3] = 0.15 wt % BENZ in water, scale 0 to 10
structure (smiles),measurement,setting,value
"O=C(O)c1ccc(S(=O)(=O)NCl)cc1 [BENZ, N-chloro-4-carboxybenzenesulfonamide]",Post Dry average scent rating,[1],5
same,Post Wet average scent rating,[1],5
same,Water average scent rating,[1],7
same,Pre Soak average scent rating,"0.02 wt % BENZ in water, scale 0 (no smell) to 10 (extremely smelly)",10
same,effect on malodor,0.02 wt % concentration,reduced the intensity of the malodor significantly
same,Post Dry average scent rating,[2],4
same,Post Wet average scent rating,[2],5
same,Water average scent rating,[2],5
same,Pre Soak average scent rating,[2],10
same,effect on malodor,0.04 wt % concentration,reduced the intensity of the malodor significantly
same,Post Dry average scent rating,[3],0
same,Post Wet average scent rating,[3],1
same,Water average scent rating,[3],2
same,Pre Soak average scent rating,[3],10
same,effect on malodor,"0.15 wt % concentration, once the shirt was dry",eradicated the malodor completely
